Source: paper PMC3252375 (PLoS Pathogens, 2012)
Read-outs that look alike come from different tables or passages of the source.

Legend:
[1] = system: LncP (Legionella nucleotide carrier Protein)
[2] = system: LncP (Legionella nucleotide carrier Protein); type: biochemical, Legionella pneumophila

Compound | Km [1] [µM] | Km [2] [µM]
Nc1ncnc2c1ncn2[C@@H]1O[C@H](COP(=O)(O)OP(=O)(O)OP(=O)(O)O)[C@@H](O)[C@H]1O [ATP] | 190 ± 37 | 
Nc1nc2c(ncn2[C@@H]2O[C@H](COP(=O)(O)OP(=O)(O)OP(=O)(O)O)[C@@H](O)[C@H]2O)c(=O)[nH]1 [GTP] |  | 183 ± 32
